Measured values taken from patent US20150094474A1, “AGRICULTURAL CHEMICALS” (Redx Pharma Ltd., priority 2012, published 2015).

Experiments:
[1] = test system: Chinese cabbage; test: Herbicidal bioassay, Chinese cabbage (% necrosis); format: in vivo
Method: A laboratory bioassay was conducted to screen ten compounds (Fluazifop (25); Ethyl fluazifop (62); five fluazifop analogues: 27, 28, 63, 64 and 65; mesofulfuron (6); and two mesosulfuron analogues: 8 and 61. for activity against Lolium perenne, barley, peas and Chinese cabbage. Compounds were diluted in DMSO. Controls were performed using both DMSO and water.
Plants were obtained as seeds and were grown to the 2-4 true leaf stage. Plants were grown individually in seed trays. Each plant (in an approximately 3 cm diameter plug) was then detached from the tray for spraying. Environmental conditions were closely monitored and recorded and were within the optimal range of the target species.
The compounds were screened at a range of six concentrations, eg. 0.05%, 0.01%, 0.005%, 0.001%, 0.0005% and 0.0001%. Treatments will be applied directly onto the plants, using a potter tower.
One plant of each type will be sprayed using a potter tower. The 4 different types of weeds will be placed in a 10 cm diameter area underneath the potter sprayer and sprayed simultaneously. The growth of the plants and any Phytotoxicity effects will then be assessed at specified growth intervals, according to EPPO guideline PP1/135. Five replicates will be performed for each treatment, for each species.

[2] = test system: peas; test: Herbicidal bioassay, peas (% necrosis); format: in vivo
Procedure, shortened: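 Lolium perenne, barley, peas and Chinese cabbage at 2-4 true leaf stage sprayed simultaneously with a Potter tower, compounds in DMSO at six concentrations (0.05% to 0.0001%). Phytotoxicity scored as % necrosis per EPPO PP1/135 at set intervals; five replicates per treatment and species; DMSO and water controls.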

CCOC(=O)C(C)Oc1ccc(Oc2ccc(C(F)(F)F)cn2)cc1 (stereo not drawn) [Fluazifop Ethyl ester (62)]
A (over 80% necrosis): Sum of % necrosis in Chinese cabbage ([1]; Dose 0.00005, Day 10) | Sum of % necrosis in Chinese cabbage ([1]; Dose 0.00005, Day 14) | Sum of % necrosis in Chinese cabbage ([1]; Dose 0.00005, Day 21) | Sum of % necrosis in Chinese cabbage ([1]; Dose 0.0001, Day 10) | Sum of % necrosis in Chinese cabbage ([1]; Dose 0.0001, Day 14) | Sum of % necrosis in Chinese cabbage ([1]; Dose 0.0001, Day 21) | Sum of % necrosis in Chinese cabbage ([1]; Dose 0.0005, Day 7) | Sum of % necrosis in Chinese cabbage ([1]; Dose 0.0005, Day 10) | Sum of % necrosis in Chinese cabbage ([1]; Dose 0.0005, Day 14) | Sum of % necrosis in Chinese cabbage ([1]; Dose 0.0005, Day 21) | Sum of % necrosis in Peas ([2]; Dose 0.00001, Day 14) | Sum of % necrosis in Peas ([2]; Dose 0.00001, Day 21) | Sum of % necrosis in Peas ([2]; Dose 0.00005, Day 14) | Sum of % necrosis in Peas ([2]; Dose 0.00005, Day 21) | Sum of % necrosis in Peas ([2]; Dose 0.0001, Day 14) | Sum of % necrosis in Peas ([2]; Dose 0.0001, Day 21) | Sum of % necrosis in Peas ([2]; Dose 0.0005, Day 21)
B (50%-80% necrosis): Sum of % necrosis in Chinese cabbage ([1]; Dose 0.00005, Day 7) | Sum of % necrosis in Chinese cabbage ([1]; Dose 0.0001, Day 7) | Sum of % necrosis in Chinese cabbage ([1]; Dose 0.0005, Day 3) | Sum of % necrosis in Peas ([2]; Dose 0.000005, Day 14) | Sum of % necrosis in Peas ([2]; Dose 0.000005, Day 21) | Sum of % necrosis in Peas ([2]; Dose 0.00001, Day 10) | Sum of % necrosis in Peas ([2]; Dose 0.00005, Day 10) | Sum of % necrosis in Peas ([2]; Dose 0.0001, Day 10)
C (less than 50% necrosis): Sum of % necrosis in Chinese cabbage ([1]; Dose 0.00005, Day 0) | Sum of % necrosis in Chinese cabbage ([1]; Dose 0.00005, Day 1) | Sum of % necrosis in Chinese cabbage ([1]; Dose 0.00005, Day 3) | Sum of % necrosis in Chinese cabbage ([1]; Dose 0.0001, Day 0) | Sum of % necrosis in Chinese cabbage ([1]; Dose 0.0001, Day 1) | Sum of % necrosis in Chinese cabbage ([1]; Dose 0.0001, Day 3) | Sum of % necrosis in Chinese cabbage ([1]; Dose 0.0005, Day 0) | Sum of % necrosis in Chinese cabbage ([1]; Dose 0.0005, Day 1) | Sum of % necrosis in Peas ([2]; Dose 0.000001, Day 0) | Sum of % necrosis in Peas ([2]; Dose 0.000001, Day 1) | Sum of % necrosis in Peas ([2]; Dose 0.000001, Day 3) | Sum of % necrosis in Peas ([2]; Dose 0.000001, Day 7) | Sum of % necrosis in Peas ([2]; Dose 0.000001, Day 10) | Sum of % necrosis in Peas ([2]; Dose 0.000001, Day 14) | Sum of % necrosis in Peas ([2]; Dose 0.000001, Day 21) | Sum of % necrosis in Peas ([2]; Dose 0.000005, Day 0) | Sum of % necrosis in Peas ([2]; Dose 0.000005, Day 1) | Sum of % necrosis in Peas ([2]; Dose 0.000005, Day 3) | Sum of % necrosis in Peas ([2]; Dose 0.000005, Day 7) | Sum of % necrosis in Peas ([2]; Dose 0.000005, Day 10) | Sum of % necrosis in Peas ([2]; Dose 0.00001, Day 0) | Sum of % necrosis in Peas ([2]; Dose 0.00001, Day 1) | Sum of % necrosis in Peas ([2]; Dose 0.00001, Day 3) | Sum of % necrosis in Peas ([2]; Dose 0.00001, Day 7) | Sum of % necrosis in Peas ([2]; Dose 0.00005, Day 0) | Sum of % necrosis in Peas ([2]; Dose 0.00005, Day 1) | Sum of % necrosis in Peas ([2]; Dose 0.00005, Day 3) | Sum of % necrosis in Peas ([2]; Dose 0.00005, Day 7) | Sum of % necrosis in Peas ([2]; Dose 0.0001, Day 0) | Sum of % necrosis in Peas ([2]; Dose 0.0001, Day 1) | Sum of % necrosis in Peas ([2]; Dose 0.0001, Day 3) | Sum of % necrosis in Peas ([2]; Dose 0.0001, Day 7) | Sum of % necrosis in Peas ([2]; Dose 0.0005, Day 0) | Sum of % necrosis in Peas ([2]; Dose 0.0005, Day 1) | Sum of % necrosis in Peas ([2]; Dose 0.0005, Day 3) | Sum of % necrosis in Peas ([2]; Dose 0.0005, Day 7) | Sum of % necrosis in Peas ([2]; Dose 0.0005, Day 10) | Sum of % necrosis in Peas ([2]; Dose 0.0005, Day 14)
